Experiment [1] relates to XccR binding to the luxXc box. Briefly: EMSA: effect of sugars on binding of XccR to the luxXc box. The note with it: XccR-MBP, increasing sugar concentrations (glucose 0.005-5 μM).
The test system of experiment [2] is pip promoter (Xcc 8008, pip-GUS reporter). It is filed as cell-based, Xanthomonas campestris pv. campestris.
Experiment [3] has as its system pip promoter (Xcc 8008 reporter strain). It is filed as in vivo, Xanthomonas campestris pv. campestris in Arabidopsis. The note with it: Atsweet2‐3‐2 and Atsweet15‐4‐7 mutant plants, bacterial suspension supplemented with glucose before infection.
Another experiment deals with T1, TraR (Agrobacterium tumefaciens, UniProt P33905).
T1 sequence (P33905 1-234): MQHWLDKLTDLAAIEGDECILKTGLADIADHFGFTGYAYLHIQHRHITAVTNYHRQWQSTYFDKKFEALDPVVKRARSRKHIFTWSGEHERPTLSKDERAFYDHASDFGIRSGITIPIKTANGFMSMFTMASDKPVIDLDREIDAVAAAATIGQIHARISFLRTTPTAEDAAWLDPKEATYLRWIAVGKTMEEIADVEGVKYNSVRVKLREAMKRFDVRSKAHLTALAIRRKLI
Briefly: MST TraR–glucose interaction. It is filed as binding. The note with it: Figure S7c.

The target of experiment [4] is T2, XccR-MBP (Xanthomonas campestris pv. campestris, UniProt B0RQF7).
T2 sequence (B0RQF7 1-272): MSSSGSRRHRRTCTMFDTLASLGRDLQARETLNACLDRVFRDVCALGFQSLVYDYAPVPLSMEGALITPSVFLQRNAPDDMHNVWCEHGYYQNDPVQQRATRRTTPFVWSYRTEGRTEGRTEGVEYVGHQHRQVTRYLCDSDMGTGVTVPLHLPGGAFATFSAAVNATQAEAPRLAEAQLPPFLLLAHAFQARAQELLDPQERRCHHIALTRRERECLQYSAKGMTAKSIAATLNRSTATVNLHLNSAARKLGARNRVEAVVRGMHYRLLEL
Briefly: Microscale thermophoresis.

Experiment [5] deals with T2, XccR-MBP. Briefly: Isothermal titration calorimetry of XccR-MBP with glucose. It is filed as binding. Conditions: XccR-MBP 10 μM titrated with 100 μM glucose.
The target of a further experiment is T3, LasR (Pseudomonas aeruginosa, UniProt P25084).
T3 sequence (P25084 1-239): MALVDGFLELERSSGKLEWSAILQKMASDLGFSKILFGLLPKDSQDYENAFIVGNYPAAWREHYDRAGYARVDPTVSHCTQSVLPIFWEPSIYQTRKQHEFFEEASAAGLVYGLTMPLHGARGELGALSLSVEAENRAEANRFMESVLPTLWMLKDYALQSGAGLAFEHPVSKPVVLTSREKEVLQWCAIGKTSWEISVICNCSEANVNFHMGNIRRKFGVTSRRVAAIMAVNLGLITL
Briefly: MST LasR–glucose interaction. It is filed as binding. The note with it: Figure S7d.

The target in another experiment is T4, XccR-SUMO (Xanthomonas campestris pv. campestris, UniProt B0RQF7).
T4 sequence (B0RQF7 1-272): T2 sequence (B0RQF7 1-272)
Description: MST binding of glucose to XccR-SUMO.

Entries after “also recorded” stand apart in the source; their conditions may differ.

In the case of `O=CC[C@@H](O)[C@H](O)[C@H](O)CO` [2‐deoxyglucose, 2‐deoxy‐D‐glucose, reference compound], the “Effect on binding of XccR to the luxXc box” value (from here on “Effect on binding of XccR”) in experiment [1] is on record as “enhanced”. The “GUS activity driven by the pip promoter” value in experiment [2] is on record as “promoted”.

In the case of `O=C(CO)[C@@H](O)[C@H](O)[C@H](O)CO` [fructose], the “Effect on binding of XccR” value in experiment [1] is “did not enhance”.

With `O=C[C@H](O)[C@@H](O)[C@H](O)[C@H](O)COP(=O)(O)O` [glucose 6‐phosphate, D‐glucose 6‐phosphate], in experiment [1], the “Effect on binding of XccR” value is “did not enhance”.

Turning to `OC[C@H]1OC(O)[C@H](O)[C@@H](O)[C@@H]1O` (stereo partly shown) [glucose, D‐glucose], the “pip promoter-driven GUS activity in planta” value in experiment [3] is listed as “restored to the wild‐type level”. In addition, on TraR, the “TraR–glucose interaction” value is reported as “did not interact”. The Kd is 252 nM on XccR-MBP [4] and 242 nM at XccR-SUMO. Besides, in experiment [1], the “Effect on binding of XccR” value is recorded as “enhanced”. On XccR-MBP [5], the “Binding of XccR with glucose by ITC” value is reported as “supported by the ITC results”. Moreover, the “LasR–glucose binding” value at LasR is “did not bind”. Besides, in experiment [2], the “GUS activity driven by the pip promoter” value is “increase; also recorded: promoted”.

As to `OC[C@H]1O[C@@](CO)(O[C@H]2O[C@H](CO)[C@@H](O)[C@H](O)[C@H]2O)[C@@H](O)[C@@H]1O` [sucrose], the “Effect on binding of XccR” value in experiment [1] was “did not enhance”.

The record behind these values is paper PMC10013830 (Molecular Plant Pathology, 2023).
